Source: ChEMBL document CHEMBL4364346, “Structure optimization of a new class of PPARγ antagonists” (Bioorg Med Chem, 2019)
Converted amounts (≈) assume the structure as drawn. The source made the active and inactive calls. The rule behind the calls is not given here.

What was measured:
[1] = Solubility of compound in PBS buffer pH 7.4 with 1% DMSO measured after 1 and 24 hrs; assay type: physicochemical; conditions: PBS buffer with 1% DMSO
[2] = molecular target: T1, Nuclear receptor subfamily 1 group I member 3 (Homo sapiens, UniProt Q14994); test: Antagonist activity at recombinant human pFA-CMV fused CAR LBD transfected in HEK293T cells assessed as reduction in CITCO-induced CAR activation at 1 uM incubated for 12 to 14 hrs by dual glo luciferase reporter gene assay; assay type: cell-based
T1 sequence (Q14994 whole entry): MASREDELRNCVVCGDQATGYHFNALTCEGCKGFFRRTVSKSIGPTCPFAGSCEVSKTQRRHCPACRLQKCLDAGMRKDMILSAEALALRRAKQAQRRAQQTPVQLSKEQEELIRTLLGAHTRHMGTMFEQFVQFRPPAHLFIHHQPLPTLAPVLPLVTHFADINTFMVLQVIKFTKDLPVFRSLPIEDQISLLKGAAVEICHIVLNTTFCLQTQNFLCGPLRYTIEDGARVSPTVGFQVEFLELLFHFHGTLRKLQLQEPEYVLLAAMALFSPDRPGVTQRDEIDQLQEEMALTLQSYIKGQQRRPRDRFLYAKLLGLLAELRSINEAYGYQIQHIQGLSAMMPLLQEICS

[3] = molecular target: T2, Peroxisome proliferator-activated receptor gamma (Homo sapiens, UniProt P37231); test: Antagonist actvity in pFA-GAL4-DBD fused PPARgamma LBD (unknown origin) transfected in HEK293T cells assessed as inhibition of rosiglitazone-induced PPARgamma transactivation incubated for 24 hrs by luciferase reporter gene assay; assay type: cell-based; conditions: read-out: IC50
T2 sequence (P37231 whole entry): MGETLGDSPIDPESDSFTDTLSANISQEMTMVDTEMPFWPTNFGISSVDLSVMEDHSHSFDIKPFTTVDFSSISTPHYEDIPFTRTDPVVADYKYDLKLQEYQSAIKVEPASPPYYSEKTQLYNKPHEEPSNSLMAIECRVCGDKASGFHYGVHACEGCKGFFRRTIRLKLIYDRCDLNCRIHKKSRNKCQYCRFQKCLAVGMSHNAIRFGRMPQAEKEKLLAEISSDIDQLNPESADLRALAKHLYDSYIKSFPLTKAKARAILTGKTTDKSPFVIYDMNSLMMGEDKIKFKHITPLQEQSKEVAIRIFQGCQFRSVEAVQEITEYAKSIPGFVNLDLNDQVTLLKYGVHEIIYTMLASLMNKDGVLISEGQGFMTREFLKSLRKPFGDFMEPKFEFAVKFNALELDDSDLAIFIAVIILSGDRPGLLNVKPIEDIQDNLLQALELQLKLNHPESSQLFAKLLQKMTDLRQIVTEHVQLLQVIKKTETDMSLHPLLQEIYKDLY

[4] = molecular target: T3, Bile acid receptor (Homo sapiens) (UniProt Q96RI1); test: Antagonist activity at recombinant human pFA-CMV fused FXR LBD transfected in HEK293T cells assessed as reduction in GW4064-induced FXR activation at 1 uM incubated for 12 to 14 hrs by dual glo luciferase reporter gene assay; assay type: cell-based
T3 sequence (whole entry): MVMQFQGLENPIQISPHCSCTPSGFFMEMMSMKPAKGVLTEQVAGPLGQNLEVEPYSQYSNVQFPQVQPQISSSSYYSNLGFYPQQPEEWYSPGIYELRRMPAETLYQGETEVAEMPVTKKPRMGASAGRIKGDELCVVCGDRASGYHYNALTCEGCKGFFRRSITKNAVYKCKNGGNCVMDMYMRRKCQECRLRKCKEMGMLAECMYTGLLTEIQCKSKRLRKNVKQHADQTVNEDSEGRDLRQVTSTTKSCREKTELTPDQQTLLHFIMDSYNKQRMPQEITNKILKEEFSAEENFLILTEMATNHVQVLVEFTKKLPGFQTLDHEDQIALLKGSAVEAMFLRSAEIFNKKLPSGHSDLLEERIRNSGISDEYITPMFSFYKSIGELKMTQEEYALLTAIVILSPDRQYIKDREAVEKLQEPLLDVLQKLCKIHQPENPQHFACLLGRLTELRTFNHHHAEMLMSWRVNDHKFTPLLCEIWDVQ

[5] = Cmax in Swiss CD1 mouse at 10 mg/kg, ip measured upto 7 hrs by LC-MS analysis; assay type: ADME, organism-based; set-up: dose 10 mg/kg, route intraperitoneal; conditions: in vivo
[6] = Plasma concentration in Swiss CD1 mouse at 1 mg/kg, ip measured upto 3 hrs by LC-MS analysis; assay type: ADME, organism-based
[7] = molecular target: T3, Bile acid receptor (Homo sapiens); test: Agonist activity at recombinant human pFA-CMV fused FXR LBD transfected in HEK293T cells assessed as FXR activation at 1 uM incubated for 12 to 14 hrs by dual glo luciferase reporter gene assay; assay type: cell-based
[8] = molecular target: T4, Peroxisome proliferator-activated receptor alpha (Homo sapiens) (UniProt Q07869); test: Agonist activity at recombinant human pFA-CMV fused PPARalpha LBD transfected in HEK293T cells assessed as PPARalpha activation at 1 uM incubated for 12 to 14 hrs by dual glo luciferase reporter gene assay; assay type: cell-based
T4 sequence (whole entry): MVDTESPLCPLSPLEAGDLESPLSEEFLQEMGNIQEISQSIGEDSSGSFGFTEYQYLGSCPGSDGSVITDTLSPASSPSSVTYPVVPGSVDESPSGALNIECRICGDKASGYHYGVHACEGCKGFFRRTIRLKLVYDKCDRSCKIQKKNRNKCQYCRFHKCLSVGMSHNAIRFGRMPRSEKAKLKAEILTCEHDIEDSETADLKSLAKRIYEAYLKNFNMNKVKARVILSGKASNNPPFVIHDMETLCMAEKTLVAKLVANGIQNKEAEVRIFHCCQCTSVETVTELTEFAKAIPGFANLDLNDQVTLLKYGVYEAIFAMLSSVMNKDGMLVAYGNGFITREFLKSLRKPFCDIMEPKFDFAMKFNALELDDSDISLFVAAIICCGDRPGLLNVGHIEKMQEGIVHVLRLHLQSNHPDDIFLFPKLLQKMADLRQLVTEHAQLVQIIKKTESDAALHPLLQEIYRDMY

[9] = molecular target: T5, Peroxisome proliferator-activated receptor delta (Homo sapiens) (UniProt Q03181); test: Agonist activity at recombinant human pFA-CMV fused PPARdelta LBD transfected in HEK293T cells assessed as PPARdelta activation at 1 uM incubated for 12 to 14 hrs by dual glo luciferase reporter gene assay; assay type: cell-based
T5 sequence (whole entry): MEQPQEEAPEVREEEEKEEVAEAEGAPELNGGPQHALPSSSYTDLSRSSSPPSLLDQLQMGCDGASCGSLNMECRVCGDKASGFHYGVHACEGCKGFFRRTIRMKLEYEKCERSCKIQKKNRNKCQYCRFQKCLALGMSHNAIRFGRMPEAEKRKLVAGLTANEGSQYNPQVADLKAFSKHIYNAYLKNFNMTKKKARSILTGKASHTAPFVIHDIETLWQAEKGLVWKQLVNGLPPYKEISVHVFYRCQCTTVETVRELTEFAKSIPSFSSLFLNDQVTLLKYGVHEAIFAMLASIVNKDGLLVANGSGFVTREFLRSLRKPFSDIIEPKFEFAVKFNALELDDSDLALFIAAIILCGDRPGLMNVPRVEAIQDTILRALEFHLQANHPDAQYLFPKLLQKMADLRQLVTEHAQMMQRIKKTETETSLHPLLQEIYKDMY

| solubility at 24 h [1] [µM] | Activity [2] | IC50 [3] [µM] | Activity [4] | Cmax [5] [nM] | concentration at 3 h [6] [nM] | Activity [7] | Activity [8] | Activity [9] | Compound |
| --- | --- | --- | --- | --- | --- | --- | --- | --- | --- |
| 200 to 250 (≈ 118 to 147 µg/mL) | Not Active | 4.7 | inactive | 446 | 9.5 | inactive | inactive | inactive | CCC/C(=C\c1cc(OCc2ccc3nc(C(F)(F)F)cc(OC)c3c2)ccc1OCCN1CCN(C)CC1)C(=O)O |
| 125 to 150 (≈ 71.6 to 85.9 µg/mL) | Not Active | 2.5 | inactive | 380 | 14 | inactive | inactive | inactive | CCC/C(=C\c1cc(OCc2ccc3nc(C(F)(F)F)cc(OC)c3c2)ccc1OCC1CCN(C)CC1)C(=O)O |
